From US6476242B1 (Bristol-Myers Squibb Company, priority 1997, dated 2002)
pIC50: −log10 of the molar value. “And” between values parts separate entries of the source, which are not always exact repeats. Identical values can stand only once.

What was measured:
[1] = test system: HCT116; test: HCT116 activity (Table 1); format: cell-based; details: for pIC50: HCT116 cells, unit inferred; for anal/PT (beside HCT116 and 116/VM46): ratio analog/paclitaxel in HCT116
[2] = test system: 116/VM46; test: 116/VM46 activity, resistant line (Table 1); format: cell-based; details: for pIC50: 116/VM46 cells, unit inferred; for R/S ratio: ratio 116/VM46 (resistant) to HCT116 (sensitive)
[3] = test system: Tubulin; test: Tubulin Data (Table 1); format: biochemical; details: ratio analog/paclitaxel for tubulin data

pIC50 [1] | pIC50 [2] | SMILES | anal/PT (beside HCT116 and 116/VM46) [1] | R/S ratio [2] | anal/PT (beside Tubulin Data) [3]
7.77 | 6.87 | CSC(=S)O[C@@]12CO[C@@H]1C[C@H](O)[C@@]1(C)C(=O)[C@H](OC(C)=O)C3=C(C)[C@@H](OC(=O)[C@H](O)[C@@H](NC(=O)c4ccccc4)c4ccccc4)C[C@@](O)([C@@H](OC(=O)c4cccc(N=[N+]=[N-])c4)[C@H]21)C3(C)C [MC-134-239, 2-(m-azidobenzoyl-4-xanthyl)PT] | 11.02 | 8.03 | 42
8.66 | 7.09 | COC(=O)OC12COC1CC(O)C1(C)C(=O)C(OC(C)=O)C3=C(C)C(OC(=O)C(O)C(NC(=O)c4ccccc4)c4ccccc4)CC(O)(C(OC(=O)c4cccc(Cl)c4)C21)C3(C)C (stereo not shown) [MC-134-100, 2-m-chloro-4-MeOCO-PT] |  | 37 | 0.4
8.68 | 7.36 | COC(=O)O[C@@]12CO[C@@H]1C[C@H](O)[C@@]1(C)C(=O)[C@H](OC(C)=O)C3=C(C)[C@@H](OC(=O)[C@H](O)[C@@H](NC(=O)c4ccccc4)c4ccccc4)C[C@@](O)([C@@H](OC(=O)c4cccc(C)c4)[C@H]21)C3(C)C [MC-134-68, 2-(m-methylbenzoyl)-4-MeOCO-PT] |  | 21 | 0.8
8.68 | 8.09 | CC(=O)OC1C(=O)C2(C)C(O)CC3OCC3(OC(=O)C3CC3)C2C(OC(=O)c2ccc(F)cc2F)C2(O)CC(OC(=O)C(O)C(NC(=O)c3ccccc3)c3ccccc3)C(C)=C1C2(C)C (stereo not shown) [MC-134-248, 2-(2,4-difluorobz)-4-cyclopropylCO-PT] | 1.03 | 3.86 | 0.2
5.61 | 5.61 | CC(=O)OC1C(=O)C2(C)C(O)CC3OCC3(OC(=O)c3cccc(Cl)c3)C2C(OC(=O)c2cccc(Cl)c2)C2(O)CC(OC(=O)C(O)C(NC(=O)c3ccccc3)c3ccccc3)C(C)=C1C2(C)C (stereo not shown) [MC-134-277, 2-(m-Cl-benzoyl)-4-(m-Cl-benzoyl)PT] |  |  | 144
8.70 | 7.40 | COc1cccc(C(=O)O[C@H]2[C@@H]3[C@]4(OC(=O)C5CC5)CO[C@@H]4C[C@H](O)[C@@]3(C)C(=O)[C@H](OC(C)=O)C3=C(C)[C@@H](OC(=O)[C@H](O)[C@@H](NC(=O)c4ccccc4)c4ccccc4)C[C@]2(O)C3(C)C)c1 [MC-134-45, 2-(m-methoxybz)-4-cyclopropylCO-PT] |  | 20 | 1.3
8.74 | 7.35 | COc1ccc(OC)c(C(=O)O[C@H]2[C@@H]3[C@]4(OC(=O)C5CC5)CO[C@@H]4C[C@H](O)[C@@]3(C)C(=O)[C@H](OC(C)=O)C3=C(C)[C@@H](OC(=O)[C@H](O)[C@@H](NC(=O)c4ccccc4)c4ccccc4)C[C@]2(O)C3(C)C)c1 [MC-134-250, 2-(2,5-dimethoxybz)-4-cyclopropylCO-PT] | 0.78 | 25.06 | 0.5
8.77 and 8.96 | 7.52 and > 7.80 | CC(=O)O[C@H]1C(=O)[C@@]2(C)[C@H]([C@H](OC(=O)c3cccc(Cl)c3)[C@]3(O)C[C@H](OC(=O)[C@H](O)[C@@H](NC(=O)c4ccccc4)c4ccccc4)C(C)=C1C3(C)C)[C@]1(OC(=O)C3CC3)CO[C@@H]1C[C@@H]2O [MC-134-92, 2-m-chloro-4-cyclopropylCO-PT] |  | 18 | 0.06
8.60 | 7.12 | CC(=O)OC1C(=O)C2(C)C(O)CC3OCC3(OC(=O)C3CC3)C2C(OC(=O)c2ccc(Cl)cc2Cl)C2(O)CC(OC(=O)C(O)C(NC(=O)c3ccccc3)c3ccccc3)C(C)=C1C2(C)C (stereo not shown) [MC-134-247, 2-(2,4-dichlorobz)-4-cyclopropylCO-PT] | 1.09 | 30.64 | 0.7
8.17 and 8.36 |  | COC(=O)O[C@@]12CO[C@@H]1C[C@H](O)[C@@]1(C)C(=O)[C@H](OC(C)=O)C3=C(C)[C@@H](OC(=O)[C@H](O)[C@@H](NC(=O)c4ccccc4)c4ccccc4)C[C@@](O)([C@@H](OC(=O)c4cccc(OC)c4)[C@H]21)C3(C)C [MC-134-61, 2-(m-methoxybenzoyl)-4-MeOCO-PT] |  | 129 | 0.9
8.33 | 7.27 | COc1cccc(C(=O)O[C@H]2[C@@H]3[C@]4(OC(=S)SC)CO[C@@H]4C[C@H](O)[C@@]3(C)C(=O)[C@H](OC(C)=O)C3=C(C)[C@@H](OC(=O)[C@H](O)[C@@H](NC(=O)c4ccccc4)c4ccccc4)C[C@]2(O)C3(C)C)c1 [MC-134-229, 2-(m-methoxybenzoyl-4-xanthyl)PT] | 3.08 | 11.32 | 8.9
 | 7.55 and > 7.80 | CC(=O)O[C@H]1C(=O)[C@@]2(C)[C@H]([C@H](OC(=O)c3cccc(N=[N+]=[N-])c3)[C@]3(O)C[C@H](OC(=O)[C@H](O)[C@@H](NC(=O)c4ccccc4)c4ccccc4)C(C)=C1C3(C)C)[C@]1(OC(=O)C3CC3)CO[C@@H]1C[C@@H]2O [MC-134-91, 2-m-azido-4-cyclopropylCO-PT] |  | 10.4 | 0.08
8.24 | 7.23 | CSC(=S)O[C@@]12CO[C@@H]1C[C@H](O)[C@@]1(C)C(=O)[C@H](OC(C)=O)C3=C(C)[C@@H](OC(=O)[C@H](O)[C@@H](NC(=O)c4ccccc4)c4ccccc4)C[C@@](O)([C@@H](OC(=O)c4cccc(Cl)c4)[C@H]21)C3(C)C [MC-134-238, 2-(m-chlorobenzoyl-4-xanthyl)PT] | 3.72 | 10.34 | 3.5

SMILES | pIC50 [1] | pIC50 [2] | anal/PT (beside HCT116 and 116/VM46) [1] | R/S ratio [2] | anal/PT (beside Tubulin Data) [3]
CC(=O)O[C@H]1C(=O)[C@@]2(C)[C@H]([C@H](OC(=O)c3ccccc3)[C@]3(O)C[C@H](OC(=O)[C@H](O)[C@@H](NC(=O)c4ccccc4)c4ccccc4)C(C)=C1C3(C)C)[C@]1(OC(C)=O)CO[C@@H]1C[C@@H]2O [paclitaxel (PT), paclitaxel, reference compound] | 8.70 | 6.69 |  |  | 1
